Assays:
Format in all cases: functional
Schistosoma japonicum [1] = assay: Antiparasitic activity against Schistosoma japonicum assessed as worm survival at 50 uM incubated for 16 hrs measured after 72 hrs
Schistosoma japonicum [2] = assay: Antiparasitic activity against Schistosoma japonicum assessed as worm survival at 50 uM incubated for 16 hrs measured after 48 hrs
Schistosoma japonicum [3] = assay: Antiparasitic activity against Schistosoma japonicum assessed as worm survival at 50 uM incubated for 16 hrs measured after 24 hrs
Schistosoma japonicum [4] = assay: Antiparasitic activity against Schistosoma japonicum adult worm infected in ICR mouse assessed as worm reduction at 200 mg/kg, po administered for 3 days measured after 21 days; design: scale not given: the % may be the effect or the level left

SMILES: O=C(O)C1Nc2ccccc2S(=O)(=O)n2cccc21 (configuration not stated)
- survival at 50 µM (Schistosoma japonicum [1]): 100%
- survival at 50 µM (Schistosoma japonicum [2]): 100%
- survival at 50 µM (Schistosoma japonicum [3]): 100%

SMILES: CCOC(=O)C1Nc2ccccc2Sn2c(Br)ccc21 (configuration not stated)
- Activity (Schistosoma japonicum [4]): 12%
- survival at 50 µM (Schistosoma japonicum [1]): 66.7%
- survival at 50 µM (Schistosoma japonicum [2]): 100%
- survival at 50 µM (Schistosoma japonicum [3]): 100%

SMILES: CCOC(=O)C1Nc2ccccc2Sn2c(Cl)ccc21 (configuration not stated)
- Activity (Schistosoma japonicum [4]): 51.5%
- survival at 50 µM (Schistosoma japonicum [1]): 33.3%
- survival at 50 µM (Schistosoma japonicum [2]): 83.3%
- survival at 50 µM (Schistosoma japonicum [3]): 100%

SMILES: CCOC(=O)C1Nc2ccccc2[S+]([O-])n2cccc21 (configuration not stated)
- survival at 50 µM (Schistosoma japonicum [1]): 100%
- survival at 50 µM (Schistosoma japonicum [2]): 100%
- survival at 50 µM (Schistosoma japonicum [3]): 100%

SMILES: CCOC(=O)C1Nc2ccccc2Nn2cccc21 (configuration not stated)
- survival at 50 µM (Schistosoma japonicum [1]): 100%
- survival at 50 µM (Schistosoma japonicum [2]): 100%
- survival at 50 µM (Schistosoma japonicum [3]): 100%

SMILES: CCOC(=O)C1Nc2ccccc2N(C)n2cccc21 (configuration not stated)
- Activity (Schistosoma japonicum [4]): 34.8%
- survival at 50 µM (Schistosoma japonicum [1]): 83.3%
- survival at 50 µM (Schistosoma japonicum [2]): 100%
- survival at 50 µM (Schistosoma japonicum [3]): 100%

SMILES: CC1=Nc2ccccc2N(C)n2cccc21
- Activity (Schistosoma japonicum [4]): 24.2%
- survival at 50 µM (Schistosoma japonicum [1]): 83.3%
- survival at 50 µM (Schistosoma japonicum [2]): 100%
- survival at 50 µM (Schistosoma japonicum [3]): 100%

SMILES: CN1c2ccccc2N=Cc2cccn21
- Activity (Schistosoma japonicum [4]): 6.1%
- survival at 50 µM (Schistosoma japonicum [1]): 83.3%
- survival at 50 µM (Schistosoma japonicum [2]): 100%
- survival at 50 µM (Schistosoma japonicum [3]): 100%

SMILES: CCOC(=O)C1Nc2ccccc2Cn2cccc21 (configuration not stated)
- Activity (Schistosoma japonicum [4]): 74.2%
- survival at 50 µM (Schistosoma japonicum [1]): 83.3%
- survival at 50 µM (Schistosoma japonicum [2]): 100%
- survival at 50 µM (Schistosoma japonicum [3]): 100%

SMILES: O=C1Nc2ccccc2Sn2cccc21
- survival at 50 µM (Schistosoma japonicum [1]): 100%
- survival at 50 µM (Schistosoma japonicum [2]): 100%
- survival at 50 µM (Schistosoma japonicum [3]): 100%

SMILES: CCOC(=O)C1Nc2ccccc2Sn2cccc21 (configuration not stated)
- Activity (Schistosoma japonicum [4]): 4.5%
- survival at 50 µM (Schistosoma japonicum [1]): 16.7%
- survival at 50 µM (Schistosoma japonicum [2]): 66.7%
- survival at 50 µM (Schistosoma japonicum [3]): 100%

SMILES: CCOC(=O)C1Nc2ccccc2S(=O)(=O)n2cccc21 (configuration not stated)
- survival at 50 µM (Schistosoma japonicum [1]): 100%
- survival at 50 µM (Schistosoma japonicum [2]): 100%
- survival at 50 µM (Schistosoma japonicum [3]): 100%

SMILES: O=C(C1CCCCC1)N1CC(=O)N2CCc3ccccc3C2C1 (configuration not stated) [PRAZIQUANTEL]
- Activity (Schistosoma japonicum [4]): 96.9%
- survival at 50 µM (Schistosoma japonicum [1]): 33.3%
- survival at 50 µM (Schistosoma japonicum [2]): 33.3%
- survival at 50 µM (Schistosoma japonicum [3]): 66.7%
